According to patent US12115209B2, “ROMO1-derived antimicrobial peptides including lysine substitution and variants thereof” (KOREA UNIVERSITY RESEARCH AND BUSINESS FOUNDATION, priority 2019, dated 2024):
No end group written: not given here.

Assays:
Assay in all cases: Minimum bactericidal concentration (MBC) assay
Assay type in all cases: cell-based
[1] = system: Pseudomonas aeruginosa (ATCC 27853); settings: for MBC Pseudomonas aeruginosa: Tables 11-21, no unit printed
Protocol: (§1) First, each of Pseudomonas aeruginosa (ATCC 27853) and Staphylococcus aureus (ATCC 29213) was cultured in 3% (w/v) TSB (tryptic soy broth) liquid medium at 37° C. and 200 rpm for 4 hours, and then further cultured under the same conditions for 3 hours to a concentration of 5×10^6 CFU/ml. Strain solutions were prepared by diluting each of the further cultured strains with SP (sodium phosphate; 10 mM sodium phosphate, 1% TSB) buffer to a final concentration of 2×10^5 CFU/ml.
(§2) Then, each peptide at varying concentrations (0 μg/ml to 300 μg/ml) was dispensed into each well of a 96-well microplate, and 100 μl (1×10^5 CFU/ml) of each of the prepared strain solutions was added thereto, mixed therewith, and allowed to react with the peptide in an incubator at 37° C. for 1 hour.
(§3) In addition, 30 g/L of TS (tryptic soy) and 15 g/L of agar were dissolved in distilled water and sterilized, and then 25 ml of the solution was poured onto a 100 mm round plate and solidified at room temperature for one day or more, thereby preparing a TS agar plate. 10 μl of each reaction solution of the peptide and the strain was plated on the TS agar plate at a constant size, and incubated in an incubator at 37° C. for 18 hours, and then colony formation on the plate was checked. The minimum bactericidal concentration was defined as the minimum concentration of the peptide at which no colony was formed, and the experimental results are shown in Table 1 below.

[2] = system: CRPA; settings: Tables 11-21, no unit printed
[3] = system: Staphylococcus aureus (ATCC 29213); settings: for MBC Staphylococcus aureus: Tables 11-21, no unit printed
Protocol: as §1, §2, §3

[4] = system: Methicillin-resistant Staphylococcus aureus (MRSA, ATCC 33591); settings: Tables 11-21, no unit printed
Protocol: as §1, with “2×10^5 CFU/ml. […]” for “2×10^5 CFU/ml.”
as §3, with “checked.” for “checked. The minimum bactericidal concentration was defined as the minimum concentration of the peptide at which no colony was formed, and the experimental results are shown in Table 1 below.”
Specifically, each type of bacteria was cultured in 3% (w/v) TSB (tryptic soy broth) liquid medium at 37° C. and 200 rpm for 4 hours, and then further cultured under the same conditions for 3 hours to a concentration of 5×10^6 CFU/ml. Strain solutions were prepared by diluting each of the further cultured strains with SP buffer to a final concentration of 2×10^5 CFU/ml.
as §2, with “Then, the KU-5878” for “Then, each”
In addition, 10 μl of each reaction solution of the peptide and the strain was plated on the TS agar plate at a constant size, and incubated in an incubator at 37° C. for 18 hours, and then colony formation on the plate was checked.

Molecule | MBC Pseudomonas aeruginosa [1] [µg/mL] | MBC CRPA [2] [µg/mL] | MBC Staphylococcus aureus [3] [µg/mL] | MBC MRSA [4] [µg/mL] | MBC value (μg/ml) against Pseudomonas aeruginosa ([1]; ATCC 27853, reaction 37° C. 1 hour, no bovine serum) | MBC value (μg/ml) against Staphylococcus aureus ([3]; ATCC 29213, reaction 37° C. 1 hour, no bovine serum)
-KMMKKGGKFGTFMAIG-GIR [Peptide K4-d58K-d75M] | 150 | 160 | 150 | 180 | – | –
-TMMQSGGTFGTFMAIGMGIR [Peptide 5878-d58K] | 300 | 300 | 300 | > 300 | – | –
ATMMQSGGTFGTFMAIGMGIR [KU-5878-K58A] | > 300 | > 300 | > 300 | > 300 | – | –
K-MMQSGGTFGTFMAIGMGIR [Peptide 5878-d59T] | 150 | 150 | 150 | 150 | – | –
KAMMQSGGTFGTFMAIGMGIR [KU-5878-T59A] | 150 | 130 | 120 | 140 | – | –
KK-MKKGGKFGTFMAIG-GIR [Peptide K4-d60M-d75M] | 200 | 200 | 200 | 210 | – | –
KKMMKKGGKFGT-MAIGMGIR [5878 K4-d70F] | 100 | 160 | 140 | 110 | – | –
KKMMKKGGKFGTFM-IG-GIR [Peptide K4-d72A-d75M] | 200 | 200 | 200 | 200 | – | –
KKMMKKGGKFGTFMA-GMGIR [Peptide 5878-K4-d73I] | 300 | > 300 | 300 | > 300 | – | –
KRMMQSGGTFGTFMAIGMGIR [KU-5878-T59R] | 30 | 30 | 25 | 30 | – | –
KSMMQSGGTFGTFMAIGMGIR [KU-5878-T59S] | > 300 | > 300 | > 300 | > 300 | – | –
KT-MQS-GTFGTF--IG-GIR [5878-d60M, d64G, d71M, d72A, d75M] | 200 | 200 | 200 | 200 | – | –
KT-MQS-GTFGTFM-IG-GIR [5878-d60M, d64G, d72A, d75M] | 120 | 120 | 100 | 120 | – | –
KT-MQS-GTFGTFMAIGMGIR [5878-d60M, d64G] | 100 | 100 | 100 | 110 | – | –
KT-MQSGGTFGTFM-IG-GIR [5878-d60M, d72A, d75M] | 300 | 300 | 280 | 300 | – | –
KTAMQSGGTFGTFMAIGMGIR [KU-5878-M60A] | > 300 | > 300 | > 300 | > 300 | – | –
KTMMASGGTFGTFMAIGMGIR [KU-5878-Q62A] | > 300 | > 300 | > 300 | > 300 | – | –
KTMMKSGGTFGTFMAIGMGIR [KU-5878-Q62K] | 90 | 90 | 80 | 90 | – | –
KTMMQ-GGTFGTFMAIGMGIR [Peptide 5878-d63S] | 200 | 200 | 200 | 200 | – | –
KTMMQAGGTFGTFMAIGMGIR [KU-5878-S63A] | 300 | 300 | 300 | > 300 | – | –
KTMMQKGGTFGTFMAIGMGIR [KU-5878-S63K] | 60 | 50 | 50 | 50 | – | –

Molecule | MBC Pseudomonas aeruginosa [1] [µg/mL] | MBC CRPA [2] [µg/mL] | MBC Staphylococcus aureus [3] [µg/mL] | MBC MRSA [4] [µg/mL] | MBC value (μg/ml) against Pseudomonas aeruginosa ([1]; ATCC 27853, reaction 37° C. 1 hour, no bovine serum) | MBC value (μg/ml) against Staphylococcus aureus ([3]; ATCC 29213, reaction 37° C. 1 hour, no bovine serum)
KTMMQRGGTFGTFMAIGMGIR [KU-5878-S63R] | 20 | 20 | 15 | 25 | – | –
KTMMQS-GTFGTF-AIGM-IR [5878-d64G, d71M, d76G] | 200 | 200 | 200 | 200 | – | –
KTMMQSGGAFGTFMAIGMGIR [KU-5878-T66A] | > 300 | > 300 | > 300 | > 300 | – | –
KTMMQSGGKFGTFMAIGMGIR [KU-5878-T66K] | 80 | 70 | 60 | 80 | – | –
KTMMQSGGRFGTFMAIGMGIR [KU-5878-T66R] | 80 | 80 | 90 | 90 | – | –
KTMMQSGGSFGTFMAIGMGIR [KU-5878-T66S] | > 300 | > 300 | > 300 | > 300 | – | –
KTMMQSGGT-GTFMAIGMGIR [Peptide 5878-d67F] | 200 | 200 | 200 | 200 | – | –
KTMMQSGGTAGTFMAIGMGIR [KU-5878-F67A] | > 300 | > 300 | > 300 | > 300 | – | –
KTMMQSGGTFG-FMAIGMGIR [Peptide 5878-d69T] | 120 | 140 | 120 | 140 | – | –
KTMMQSGGTFGAFMAIGMGIR [KU-5878-T69A] | 300 | 300 | 300 | 300 | – | –
KTMMQSGGTFGKFMAIGMGIR [KU-5878-T69K] | 140 | 150 | 130 | 150 | – | –
KTMMQSGGTFGT-MAIGMGIR [Peptide 5878-d70F] | 200 | 200 | 200 | 200 | – | –
KTMMQSGGTFGTF-AIG-GIR [5878-d71M, d75M] | 300 | 300 | 250 | 300 | – | –
KTMMQSGGTFGTF-AIGMGIR [Peptide 5878-d71M] | 250 | 300 | 250 | 300 | – | –
KTMMQSGGTFGTFM-IGMGIR [Peptide 5878-d72A] | 150 | 170 | 150 | 160 | – | –
KTMMQSGGTFGTFMA-GMGIR [Peptide 5878-4731] | > 300 | > 300 | > 300 | > 300 | – | –
KTMMQSGGTFGTFMAAGMGIR [KU-5878-I73A] | > 300 | > 300 | > 300 | > 300 | – | –
KTMMQSGGTFGTFMAIGMAIR [KU-5878-G76A] | > 300 | > 300 | > 300 | > 300 | – | –
KTMMQSGGTFGTFMAIGMG-R [Peptide 5878-d77I] | > 300 | > 300 | > 300 | > 300 | – | –
MPVAVGPYGQSQPSCFDRVKMGFVMGCAVGMAAGALFGTFSCLRIGMRGRELMGGIGKTMMQSGGTFGTFMAIGMGIRC (protein, Homo sapiens Romo1) MPVAVGPYGQSQPSCFDRVKMGFVMGCAVGMAAGALFGTFSCLRIGMRGRELMGGIGKTMMQSGGTFGTFMAIGMGIRC | – | – | – | – | Insoluble | Insoluble
